For 17 compounds, EC50 results are on record in patent publication US11708348B2, “Protease inhibitors for treatment of coronavirus infections” (The Scripps Research Institute, priority 2021, dated 2023).

Structures are written as SMILES.

The first assay relates to SARS-CoV-2 strain USA-WA1/2020. Description: microbe, parasite or virus in culture. As to conditions: Severe acute respiratory syndrome coronavirus 2, HeLa-ACE2, 24 h, HeLa-ACE2 cells, SARS-CoV-2 infection, 24 h; bound printed in cell; read-out: EC50, uM (Hela). It is filed as cell-based.
For `O=C1NCC[C@H]1C[C@@H](NC(=O)[C@@H]1C[C@H]2C[C@H]2N1C(=O)[C@@H]1CCCO1)C(=O)COC(F)(F)F` [Compound 326, (1R,3S,5R)-N-(3-oxo-1-((S)-2-oxopyrrolidin-3-yl)-4-(trifluoromethoxy)butan-2-yl)-2-((S)-tetrahydrofuran-2-carbonyl)-2-azabicyclo[3.1.0]-hexane-3-carboxamide], the concentration giving a half-maximal response (EC50) (in general, the concentration needed to bring the measured effect to its halfway point) was above 1 µM.

Staying with this assay, now noted: Severe acute respiratory syndrome coronavirus 2, HeLa-ACE2, 24 h, HeLa-ACE2 cells, SARS-CoV-2 infection, 24 h; cells given as a bound; read-out: EC50, uM (Hela).
Turning to `CC(C)C[C@H](CC(=O)NCc1c(F)cccc1F)C(=O)N[C@@H](C[C@@H]1CCNC1=O)C(=O)COc1c(F)c(F)cc(F)c1F` [Compound 55, (R)-N4-(2,6-difluorobenzyl)-2-isobutyl-N1-((S)-3-oxo-1-((S)-2-oxopyrrolidin-3-yl)-4-(2,3,5,6-tetrafluorophenoxy)butan-2-yl)succinamide], the EC50 is above 1 µM.

Still in this assay, the particulars now being: Severe acute respiratory syndrome coronavirus 2, HeLa-ACE2, 24 h, HeLa-ACE2 cells, SARS-CoV-2 infection, 24 h; class symbols; read-out: EC50, uM (Hela).
Regarding `COc1cccc(NC(=O)C(=O)N[C@@H](Cc2cccc(F)c2)C(=O)N[C@@H](C[C@@H]2CCNC2=O)C(=O)COC(F)(F)F)c1` [Compound 242, N1-((S)-3-(3-fluorophenyl)-1-oxo-1-(((S)-3-oxo-1-((S)-2-oxopyrrolidin-3-yl)-4-(trifluoromethoxy)butan-2-yl)amino)propan-2-yl)-N2-(3-methoxy-phenyl)oxalamide], the 50% effective concentration (EC50) was below 0.05 µM.
Same read-out and setting: as for `CC(C)C[C@H](NC(=O)C(=O)Nc1ccc(F)cc1)C(=O)N[C@@H](C[C@@H]1CCNC1=O)C(=O)COc1c(F)c(F)cc(F)c1F` [Compound 38, N1-(4-fluorophenyl)-N2-((S)-4-methyl-1-oxo-1-(((S)-3-oxo-1-((S)-2-oxopyrrolidin-3-yl)-4-(2,3,5,6-tetra-fluorophenoxy)butan-2-yl)amino)pentan-2-yl)oxalamide], the figure is below 0.05 µM.
On to `Cc1ccccc1NC(=O)C(=O)N[C@@H](CC(C)C)C(=O)N[C@@H](C[C@@H]1CCNC1=O)C(=O)COc1c(F)c(F)cc(F)c1F` [Compound 37, N1-((S)-4-methyl-1-oxo-1-(((S)-3-oxo-1-((S)-2-oxopyrrolidin-3-yl)-4-(2,3,5,6-tetrafluoro-phenoxy)butan-2-yl)amino)pentan-2-yl)-N2-(o-tolyl)oxalamide], for which the EC50 was below 0.05 µM.
For the compound `O=C(Nc1ccccc1F)C(=O)N[C@@H](CC1CCCCC1)C(=O)N[C@@H](C[C@@H]1CCNC1=O)C(=O)COc1c(F)c(F)cc(F)c1F` [Compound 61, N1-((S)-3-cyclohexyl-1-oxo-1-(((S)-3-oxo-1-((S)-2-oxopyrrolidin-3-yl)-4-(2,3,5,6-tetrafluorophenoxy)butan-2-yl)amino)propan-2-yl)-N2-(2-fluorophenyl)oxalamide], the EC50 was below 0.05 µM.
For the compound `CC(C)C[C@H](NC(=O)/C=C/c1ccccc1F)C(=O)N[C@@H](C[C@@H]1CCNC1=O)C(=O)COc1c(F)c(F)cc(F)c1F` [Compound 60, (S)-2-((E)-3-(2-fluorophenyl)acrylamido)-4-methyl-N-((S)-3-oxo-1-((S)-2-oxopyrrolidin-3-yl)-4-(2,3,5,6-tetrafluorophenoxy)butan-2-yl)pentanamide], the half-maximal effective concentration (EC50) is 0.05 to 0.2 µM.
On to `O=C1NCC[C@H]1C[C@H](NC(=O)[C@@H]1CC2(CC2)CN1C(=O)C(O)CC(F)(F)F)C(=O)COC(F)(F)F` (stereo partly drawn) [Compound 390, (6S)-N-((S)-3-oxo-1-((S)-2-oxopyrrolidin-3-yl)-4-(trifluoromethoxy)butan-2-yl)-5-(4,4,4-trifluoro-2-hydroxybutanoyl)-5-azaspiro[2.4]heptane-6-carboxamide], for which the EC50 fell in the range of 0.05 to 0.2 µM.
For the compound `CC(C)C[C@H](NC(=O)c1cc2cc(F)ccc2[nH]1)C(=O)N[C@@H](C[C@@H]1CCNC1=O)C(=O)COc1c(F)c(F)cc(F)c1F` [Compound 16, 5-fluoro-N-((S)-4-methyl-1-oxo-1-(((S)-3-oxo-1-((S)-2-oxopyrrolidin-3-yl)-4-(2,3,5,6-tetrafluorophenoxy)butan-2-yl)amino)pentan-2-yl)-1H-indole-2-carboxamide], the half-maximal effective concentration (EC50) was in the range of 0.05 to 0.2 µM.
Same read-out and setting: as for `C[C@@](O)(C(=O)N1CC2(CC2)C[C@H]1C(=O)N[C@@H](C[C@@H]1CCNC1=O)C(=O)COC(F)(F)F)c1ccccc1` [Compound 364, (S)-5-((S)-2-hydroxy-2-phenylpropanoyl)-N-((S)-3-oxo-1-((S)-2-oxopyrrolidin-3-yl)-4-(trifluoromethoxy)butan-2-yl)-5-azaspiro[2.4]-heptane-6-carboxamide], the figure is below 0.05 µM; as for `CC(C)C[C@H](NC(=O)c1ncc(-c2ccccc2)[nH]1)C(=O)N[C@@H](C[C@@H]1CCNC1=O)C(=O)COC(F)(F)F` [Compound 224, N-((S)-4-methyl-1-oxo-1-(((S)-3-oxo-1-((S)-2-oxopyrrolidin-3-yl)-4-(trifluoromethoxy)butan-2-yl)amino)pentan-2-yl)-5-phenyl-1H-imidazole-2-carboxamide], below 0.05 µM.

Staying with this assay, now noted: Severe acute respiratory syndrome coronavirus 2, HeLa-ACE2, 24 h, HeLa-ACE2 cells, SARS-CoV-2 infection, 24 h; read-out: EC50, uM (Hela).
In the case of `CC(C)C[C@H](NC(=O)[C@H](O)c1ccccc1F)C(=O)N[C@@H](C[C@@H]1CCNC1=O)C(=O)COC(F)(F)F` [Compound 408, (S)-2-((R)-2-(2-fluorophenyl)-2-hydroxyacetamido)-4-methyl-N-((S)-3-oxo-1-((S)-2-oxopyrrolidin-3-yl)-4-(trifluoromethoxy)butan-2-yl)pentanamide], the EC50 is below 0.05 µM.
Take `CC(C)(C)C(=O)N1CC2(CC2)C[C@H]1C(=O)N[C@@H](C[C@@H]1CCNC1=O)C(=O)COC(F)(F)F` [Compound 665, (S)-N-((S)-3-oxo-1-((S)-2-oxopyrrolidin-3-yl)-4-(trifluoromethoxy)butan-2-yl)-5-pivaloyl-5-azaspiro[2.4]heptane-6-carboxamide]: the half-maximal effective concentration (EC50) is 0.05 to 0.2 µM.
With `[2H]C(C)(C)C(=O)N1CC2(CC2)C[C@H]1C(=O)N[C@@H](C[C@@H]1CCNC1=O)C(=O)COC(F)(F)F` [Compound 738, (S)-5-(2-methylpropanoyl-2-d)-N-((S)-3-oxo-1-((S)-2-oxopyrrolidin-3-yl)-4-(trifluoromethoxy)butan-2-yl)-5-azaspiro[2.4]heptane-6-carboxamide], the EC50 is 0.05 to 0.2 µM.
In the case of `CC(C)C[C@@H](O)C(=O)N1C[C@H]2CC[C@H](C2)[C@H]1C(=O)N[C@@H](C[C@@H]1CCNC1=O)C(=O)COC(F)(F)F` [Compound 638, (1R,2S,5S)-3-((R)-2-hydroxy-4-methylpentanoyl)-N-((S)-3-oxo-1-((S)-2-oxopyrrolidin-3-yl)-4-(trifluoromethoxy)butan-2-yl)-3-azabicyclo[3.2.1]octane-2-carboxamide], the concentration for a half-maximal effect (EC50) was 0.05 to 0.2 µM.
With `O=C(Nc1cccc(OC(F)(F)F)c1F)C(=O)N1CC2(CC2)C[C@H]1C(=O)N[C@@H](C[C@@H]1CCNC1=O)C(=O)COC(F)(F)F` [Compound 600, (S)-5-(2-((2-fluoro-3-(trifluoromethoxy)-phenyl)amino)-2-oxoacetyl)-N-((S)-3-oxo-1-((S)-2-oxopyrrolidin-3-yl)-4-(trifluoromethoxy)-butan-2-yl)-5-azaspiro[2.4]heptane-6-carboxamide], the EC50 was below 0.05 µM.
Consider `O=C(NC12CC(F)(C1)C2)C(=O)N1C[C@@H]2CCC[C@@H]2[C@H]1C(=O)N[C@@H](C[C@@H]1CCNC1=O)C(=O)COC(F)(F)F` [Compound 525, (1S,3aR,6aS)-2-(2-((3-fluorobicyclo[1.1.1]-pentan-1-yl)amino)-2-oxoacetyl)-N-((S)-3-oxo-1-((S)-2-oxopyrrolidin-3-yl)-4-(trifluoromethoxy)butan-2-yl)octahydrocyclo-penta[c]pyrrole-1-carboxamide], for which the concentration for a half-maximal effect (EC50) was below 0.05 µM.
